The values that follow come from paper PMC5668925 (Biochemistry and Biophysics Reports, 2015).

What is called kcat/Km is the second-order rate constant that governs catalysis at low substrate concentration.

Data set [1] has as its target T1, WT (SfTre1, S. frugiperda midgut soluble trehalase, recombinant) (Spodoptera frugiperda, UniProt Q0ZIF5).
T1 sequence (Q0ZIF5 24-587): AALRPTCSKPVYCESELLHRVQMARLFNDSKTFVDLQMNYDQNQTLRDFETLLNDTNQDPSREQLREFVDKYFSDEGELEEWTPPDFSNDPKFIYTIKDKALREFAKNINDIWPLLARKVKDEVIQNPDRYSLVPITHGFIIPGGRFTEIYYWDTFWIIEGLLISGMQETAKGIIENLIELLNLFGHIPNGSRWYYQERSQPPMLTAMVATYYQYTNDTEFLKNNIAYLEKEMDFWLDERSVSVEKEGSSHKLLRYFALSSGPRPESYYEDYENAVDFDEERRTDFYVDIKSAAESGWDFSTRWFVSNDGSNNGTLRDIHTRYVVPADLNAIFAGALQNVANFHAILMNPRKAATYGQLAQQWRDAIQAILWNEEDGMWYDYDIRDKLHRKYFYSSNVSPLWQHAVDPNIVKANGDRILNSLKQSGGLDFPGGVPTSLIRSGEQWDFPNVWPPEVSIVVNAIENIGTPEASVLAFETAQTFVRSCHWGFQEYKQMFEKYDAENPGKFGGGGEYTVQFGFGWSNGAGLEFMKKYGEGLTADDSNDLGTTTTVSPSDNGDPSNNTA
As to the kind of experiment: glucose release assay, Lineweaver-Burk slope replots. It counts as biochemical.

For data set [2], the target named is T2, NCT (N- and C-terminal truncated trehalase) (Spodoptera frugiperda, UniProt Q0ZIF5, C-[…]/DEL1-102/LAST/RESIDUES/[…]).
T2 sequence (Q0ZIF5 126-556): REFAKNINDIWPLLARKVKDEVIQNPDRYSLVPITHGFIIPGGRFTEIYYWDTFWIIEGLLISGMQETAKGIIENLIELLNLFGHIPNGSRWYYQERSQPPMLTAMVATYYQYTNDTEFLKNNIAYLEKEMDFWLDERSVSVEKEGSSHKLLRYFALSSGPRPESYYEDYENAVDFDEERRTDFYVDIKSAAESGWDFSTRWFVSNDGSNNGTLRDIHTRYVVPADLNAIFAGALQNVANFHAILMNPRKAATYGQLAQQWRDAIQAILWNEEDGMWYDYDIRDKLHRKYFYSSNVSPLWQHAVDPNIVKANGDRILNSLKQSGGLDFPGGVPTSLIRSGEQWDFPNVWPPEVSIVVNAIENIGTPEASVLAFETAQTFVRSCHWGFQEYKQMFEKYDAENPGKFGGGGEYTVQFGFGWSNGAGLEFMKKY
The data set is described as above. It counts as biochemical.

Data set [3] concerns the target T2, NCT (N- and C-terminal truncated trehalase). The description is as above. It counts as biochemical. This is another data set of the same source.
Data set [4] concerns the target T1, WT (SfTre1, S. frugiperda midgut soluble trehalase, recombinant). The description is as above. It counts as biochemical. This is another data set of the same source.
The target in data set [5] is T3, NT (N-terminal truncated trehalase) (Spodoptera frugiperda, UniProt Q0ZIF5, DEL1-102).
T3 sequence (Q0ZIF5 126-587): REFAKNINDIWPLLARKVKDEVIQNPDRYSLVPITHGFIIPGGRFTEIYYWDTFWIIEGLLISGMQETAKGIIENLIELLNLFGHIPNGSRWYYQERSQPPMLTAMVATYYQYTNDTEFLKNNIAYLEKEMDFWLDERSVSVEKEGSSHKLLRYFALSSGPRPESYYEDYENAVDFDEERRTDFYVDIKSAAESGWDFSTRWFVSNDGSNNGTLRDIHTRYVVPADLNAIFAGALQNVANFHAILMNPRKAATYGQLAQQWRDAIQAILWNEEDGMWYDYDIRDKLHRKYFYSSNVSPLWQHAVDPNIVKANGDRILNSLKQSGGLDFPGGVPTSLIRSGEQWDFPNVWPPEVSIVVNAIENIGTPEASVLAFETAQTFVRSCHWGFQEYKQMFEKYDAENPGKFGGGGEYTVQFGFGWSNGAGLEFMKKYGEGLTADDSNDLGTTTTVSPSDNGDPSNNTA
The data set is described as above. It counts as biochemical.

The target of data set [6] is T4, NCT (N- and C-terminal truncated trehalase) (Spodoptera frugiperda, UniProt Q0ZIF5).
T4 sequence (Q0ZIF5 126-556): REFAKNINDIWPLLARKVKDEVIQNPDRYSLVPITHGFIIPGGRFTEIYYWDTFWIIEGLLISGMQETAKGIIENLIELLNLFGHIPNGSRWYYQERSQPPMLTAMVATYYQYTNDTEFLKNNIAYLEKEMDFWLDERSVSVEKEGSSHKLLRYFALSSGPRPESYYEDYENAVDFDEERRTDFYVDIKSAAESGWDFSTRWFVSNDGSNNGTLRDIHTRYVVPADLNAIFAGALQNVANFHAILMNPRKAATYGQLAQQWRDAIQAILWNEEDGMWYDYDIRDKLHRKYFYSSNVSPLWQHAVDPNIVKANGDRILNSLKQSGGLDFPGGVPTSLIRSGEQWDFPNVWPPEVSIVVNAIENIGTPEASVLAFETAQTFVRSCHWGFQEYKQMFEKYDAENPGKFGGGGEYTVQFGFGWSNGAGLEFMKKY
The description is as above. It counts as biochemical. To be noted: read-out: Enzyme / NCT; competitive; substrate trehalose 0.2-2 mM; pH 6.0, 30 °C.

In data set [7] the target is T5, NT (N-terminal truncated trehalase) (Spodoptera frugiperda, UniProt Q0ZIF5).
T5 sequence (Q0ZIF5 126-587): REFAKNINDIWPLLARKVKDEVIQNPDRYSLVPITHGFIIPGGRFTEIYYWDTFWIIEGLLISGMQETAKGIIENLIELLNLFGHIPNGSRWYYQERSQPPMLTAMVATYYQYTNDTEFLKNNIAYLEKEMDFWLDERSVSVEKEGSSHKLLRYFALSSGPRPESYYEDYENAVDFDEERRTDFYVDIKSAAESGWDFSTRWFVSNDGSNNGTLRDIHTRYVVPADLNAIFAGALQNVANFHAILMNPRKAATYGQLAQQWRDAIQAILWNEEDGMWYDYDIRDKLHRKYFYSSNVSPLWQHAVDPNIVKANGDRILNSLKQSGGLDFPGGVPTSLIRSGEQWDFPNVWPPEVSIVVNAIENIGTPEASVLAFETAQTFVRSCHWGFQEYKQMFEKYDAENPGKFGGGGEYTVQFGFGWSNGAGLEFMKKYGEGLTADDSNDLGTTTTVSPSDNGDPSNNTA
The description is as above. It counts as biochemical. To be noted: read-out: Enzyme / NT; competitive; substrate trehalose 0.2-2 mM; pH 6.0, 30 °C.

Substrate in the data set “purified protein”: OC[C@H]1O[C@H](O[C@H]2O[C@H](CO)[C@@H](O)[C@H](O)[C@H]2O)[C@H](O)[C@@H](O)[C@@H]1O
The experiment in a line: purified protein. To be noted: pH 6.0 citrate-sodium phosphate, 30 °C.

Where two headings read alike, the source gives them in different places.

As for `OC[C@H]1NC[C@H](O)[C@@H](O)[C@@H]1O` [1-deoxynojirimycin], the Ki worked out at 1 ± 0.24 µM in data set [1] and 0.8 ± 0.2 µM in data set [2].
Turning to `N#C[C@H](O[C@@H]1O[C@H](CO[C@@H]2O[C@H](CO)[C@@H](O)[C@H](O)[C@H]2O)[C@@H](O)[C@H](O)[C@H]1O)c1ccccc1` [amygdalin], the Ki worked out at 490 ± 90 µM in data set [3], 280 ± 70 µM in data set [4] and 400 ± 100 µM in data set [5].
For the molecule `COC1OC(CO)C(O)C(O)C1O` (stereo not drawn) [methyl α-mannoside], the Ki in data set [1] (read-out: Enzyme / WT, competitive, substrate trehalose 0.2-2 mM, pH 6.0, 30 °C) was 17000 ± 1000 µM; in data set [6] it was 16000 ± 1000 µM; in data set [7], 17000 ± 2000 µM.

B1: WT (SfTre1, S. frugiperda midgut soluble trehalase, recombinant) (Spodoptera frugiperda) (protein)
chain: AALRPTCSKPVYCESELLHRVQMARLFNDSKTFVDLQMNYDQNQTLRDFETLLNDTNQDPSREQLREFVDKYFSDEGELEEWTPPDFSNDPKFIYTIKDKALREFAKNINDIWPLLARKVKDEVIQNPDRYSLVPITHGFIIPGGRFTEIYYWDTFWIIEGLLISGMQETAKGIIENLIELLNLFGHIPNGSRWYYQERSQPPMLTAMVATYYQYTNDTEFLKNNIAYLEKEMDFWLDERSVSVEKEGSSHKLLRYFALSSGPRPESYYEDYENAVDFDEERRTDFYVDIKSAAESGWDFSTRWFVSNDGSNNGTLRDIHTRYVVPADLNAIFAGALQNVANFHAILMNPRKAATYGQLAQQWRDAIQAILWNEEDGMWYDYDIRDKLHRKYFYSSNVSPLWQHAVDPNIVKANGDRILNSLKQSGGLDFPGGVPTSLIRSGEQWDFPNVWPPEVSIVVNAIENIGTPEASVLAFETAQTFVRSCHWGFQEYKQMFEKYDAENPGKFGGGGEYTVQFGFGWSNGAGLEFMKKYGEGLTADDSNDLGTTTTVSPSDNGDPSNNTA
For the molecule B1, the specificity constant (kcat/Km) in “purified protein” is 74500 M⁻¹ s⁻¹.
